# According to patent US20250026748A1, “N-(5-SUBSTITUTED-[(1,3,4-THIADIAZOLYL) OR (THIAZOLYL)])(SUBSTITUTED)CARBOXAMIDE COMPOUNDS AND USE THEREOF FOR INHIBITING HUMAN POLYMERASE THETA” (Repare Therapeutics Inc., priority 2021, published 2025):
# Target: PolQ ATPase enzyme (1-894) (Homo sapiens (Human), UniProt O75417)
# Test: Polθ ATPase enzymatic assay (0.5 nM enzyme concentration), ADP-Glo
# Format: biochemical
# Settings: average IC50; 0.5 nM PolQ ATPase enzyme (1-894)
# In short: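 Enzyme (0.5 nM) pre-incubated 15 min at rt with 10-point inhibitor series in 50 mM Tris pH 7.5, 10% glycerol, 5 mM DTT, 10 mM MgCl2, 0.1 mg/ml BSA; reaction started with 20 nM fork DNA and 100 μM ATP, run 180 min at rt. ADP-Glo luminescence; IC50 from 4-parameter variable-slope fit.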
# PolQ ATPase enzyme (1-894), sequence (O75417 1-894): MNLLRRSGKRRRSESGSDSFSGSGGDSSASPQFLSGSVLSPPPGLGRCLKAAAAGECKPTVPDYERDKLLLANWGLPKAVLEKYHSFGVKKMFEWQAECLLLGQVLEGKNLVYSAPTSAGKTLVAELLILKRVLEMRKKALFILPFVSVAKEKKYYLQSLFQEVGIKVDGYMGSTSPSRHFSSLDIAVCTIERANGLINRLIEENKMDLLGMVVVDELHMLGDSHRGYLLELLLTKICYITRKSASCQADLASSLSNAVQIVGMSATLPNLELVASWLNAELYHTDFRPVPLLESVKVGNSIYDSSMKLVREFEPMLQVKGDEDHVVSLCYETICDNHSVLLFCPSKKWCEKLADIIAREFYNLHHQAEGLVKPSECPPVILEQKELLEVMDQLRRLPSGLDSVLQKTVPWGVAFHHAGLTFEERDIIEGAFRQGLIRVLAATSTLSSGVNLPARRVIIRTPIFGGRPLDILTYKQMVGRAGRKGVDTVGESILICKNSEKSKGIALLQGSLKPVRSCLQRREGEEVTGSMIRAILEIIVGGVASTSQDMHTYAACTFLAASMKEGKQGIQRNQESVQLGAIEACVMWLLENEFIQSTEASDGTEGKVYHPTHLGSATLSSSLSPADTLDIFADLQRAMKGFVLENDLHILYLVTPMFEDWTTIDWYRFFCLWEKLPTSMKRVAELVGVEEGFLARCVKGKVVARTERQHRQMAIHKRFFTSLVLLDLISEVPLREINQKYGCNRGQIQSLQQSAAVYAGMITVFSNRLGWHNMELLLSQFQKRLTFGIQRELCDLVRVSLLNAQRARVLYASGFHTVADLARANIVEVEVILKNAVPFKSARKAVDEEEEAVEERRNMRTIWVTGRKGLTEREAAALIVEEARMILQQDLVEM
row,SMILES,IC50
1,COc1cnc(C(F)F)cc1-c1cc(CC(=O)N(C)C)ccc1C(=O)Nc1ncc(C#CC2CC2)s1 [Compound 215],0.31 nM
2,COc1cnc(C(F)F)cc1-c1cc(C#CCN2CCOCC2)ncc1C(=O)Nc1nnc(C#CC2CC2)s1 [Compound 218],0.25 nM
3,COc1cnc(C(F)F)cc1-c1cc(C#CCN2CCOCC2)ccc1C(=O)Nc1nnc(C#CC2CC2)s1 [Compound 219],< 0.25 nM
4,COc1cnc(C(F)F)cc1-c1cc(N(C)C(=O)C2(C)COC2)ccc1C(=O)Nc1nnc(C#CC2CC2)s1 [Compound 220],0.78 nM
5,COc1cnc(C(F)F)cc1-c1cc(N(C)C(=O)C2(C)CC2)ccc1C(=O)Nc1nnc(C#CC2CC2)s1 [Compound 221],0.98 nM
6,COc1cnc(C(F)F)cc1-c1cc(N(C)C(=O)C2CC2)ccc1C(=O)Nc1nnc(C#CC2CC2)s1 [Compound 222],< 0.25 nM
7,COc1cnc(C(F)F)cc1-c1cc(C#CC2CCOC2)ncc1C(=O)Nc1ncc(C#CC2CC2)s1 (centres unmarked) [Compound 223],0.29 nM
8,[2H]C([2H])([2H])N(C(=O)C1CC(C)(O)C1)c1ccc(C(=O)Nc2nnc(C#CC3CC3)s2)c(-c2cc(C(F)F)ncc2OC)c1 (centres unmarked) [Compound 224],0.35 nM
9,COc1cnc(C(F)F)cc1-c1cc(CC#N)ncc1C(=O)Nc1nnc(C#CC2CC2)s1 [Compound 226],0.61 nM
10,COc1cnc(C(F)F)cc1-c1cc(CC(=O)N2CCOCC2)ccc1C(=O)Nc1nnc(C#CC2CC2)s1 [Compound 228],< 0.25 nM
11,[2H]C([2H])([2H])N(C(=O)C1CCOC1)c1ccc(C(=O)Nc2nnc(C#CC3CC3)s2)c(-c2cc(C(F)F)ncc2OC)c1 (centres unmarked) [Compound 229],1.4 nM
12,CNC(=O)Cc1ccc(C(=O)Nc2nnc(C#CC3CC3)s2)c(-c2cc(C(F)F)ncc2OC)c1 [Compound 230],< 0.25 nM
13,[2H]C([2H])([2H])N(C(C)=O)c1ccc(C(=O)Nc2nnc(C#CC3CC3)s2)c(-c2cc(C(F)F)ncc2OC)c1 [Compound 232],< 0.25 nM
14,COc1cnc(C(F)F)cc1-c1cc(C#CC2(n3cccn3)CC2)ncc1C(=O)Nc1nnc(C#CC2CC2)s1 [Compound 233],< 0.25 nM
15,COc1cnc(Cl)cc1-c1cc(C2(C(=O)N(C)C)CC2)ccc1C(=O)Nc1nnc(C#CC2CC2)s1 [Compound 234],34 nM
16,COc1cnc(C(F)F)cc1-c1cc(C#CCN(C)C)ccc1C(=O)Nc1nnc(C#CC2CC2)s1 [Compound 236],0.56 nM
17,[2H]C([2H])([2H])N(C(C)=O)c1ccc(C(=O)Nc2nnc(C#CC3CC34CC4)s2)c(-c2cc(C(F)F)ncc2OC)c1 (centres unmarked) [Compound 237],< 0.25 nM
18,COc1cnc(C(F)F)cc1-c1cc(C#CC2(O)CCS(=O)(=O)CC2)ccc1C(=O)Nc1ncc(C#CC2CC2)s1 [Compound 238],3.6 nM
19,COc1cnc(C(F)F)cc1-c1cc(C#CC(C)(C)CO)ccc1C(=O)Nc1nnc(C#CC2CC2)s1 [Compound 240],0.73 nM
20,COc1cnc(C(F)F)cc1-c1cc(C#CC(C)(C)CO)ncc1C(=O)Nc1nnc(C#CC2CC2)s1 [Compound 241],0.33 nM
21,COc1cnc(C(F)F)cc1-c1cc(C#CCN2CCS(=O)(=O)CC2)ccc1C(=O)Nc1nnc(C#CC2CC2)s1 [Compound 242],0.35 nM
22,COc1cnc(C(F)F)cc1-c1cc(Cc2nnc(C)o2)ccc1C(=O)Nc1nnc(C#CC2CC2)s1 [Compound 244],< 0.25 nM
23,COc1cnc(C(F)F)cc1-c1cc(CC(=O)N(C)C)ncc1C(=O)Nc1nnc(C#CC2CC2)s1 [Compound 245],< 0.25 nM

row,SMILES,IC50
1,COc1cnc(C(F)F)cc1-c1cc(C#CC2(OC)CCOCC2)ccc1C(=O)Nc1nnc(C#CC2CC2)s1 [Compound 246],1.1 nM
2,COc1cnc(C(F)F)cc1-c1cc(C#CC(C)(C)O)ncc1C(=O)Nc1nnc(C#CC2CC2)s1 [Compound 253],< 0.25 nM
3,COc1cnc(C(F)F)cc1-c1cc(C#CC2(O)CCOCC2)ncc1C(=O)Nc1nnc(C#CC2CC2)s1 [Compound 255],0.26 nM
4,COc1cnc(C(F)F)cc1-c1cc(CCC2(O)CCS(=O)(=O)CC2)ccc1C(=O)Nc1nnc(C#CC2CC2)s1 [Compound 256],2.9 nM
5,COc1cnc(C(F)F)cc1-c1cc(C(=O)N(C)C)ccc1C(=O)Nc1ncc(C#CC2CC2)s1 [Compound 257],26 nM
6,COc1cnc(C(F)F)cc1-c1cc(C(=O)N(C)C)ccc1C(=O)Nc1nnc(C#CC2CC2)s1 [Compound 258],2.9 nM
7,COc1cnc(C(F)F)cc1-c1cc(Cl)ncc1C(=O)Nc1nc(C#N)c(C#CC2CC2)s1 [Compound 259],1.2 nM
8,COc1cnc(C(F)F)cc1-c1cc(C[S+](C)[O-])ccc1C(=O)Nc1nnc(C#CC2CC2)s1 (centres unmarked) [Compound 260],2 nM
9,COc1cnc(C(F)F)cc1-c1cc(C#CC2(O)CCS(=O)(=O)CC2)ccc1C(=O)Nc1nnc(C#CC2CC2)s1 [Compound 264],< 0.25 nM
10,COc1cnc(C(F)F)cc1-c1cc(CC(=O)N(C)C)ccc1C(=O)Nc1nnc(C#CC2CC2)s1 [Compound 265],< 0.25 nM
11,COc1cnc(C(F)F)cc1-c1cnccc1C(=O)Nc1nnc(C2C[C@H]2c2ccc(C#N)nc2)s1 (some centres unmarked) [Compound 266],4.4 nM
12,"COc1cnc(C(F)F)cc1-c1cc(C#CC2CCOCC2)ncc1C(=O)Nc1nnc(C#CC2CC2)s1 [Compound 268, N-(5-(cyclopropylethynyl)-1,3,4-thiadiazol-2-yl)-2′-(difluoromethyl)-5′-methoxy-6-((tetrahydro-2H-pyran-4-yl)ethynyl)-[4,4′-bipyridine]-3-carboxamide]",0.28 nM
13,C#Cc1cc(-c2cc(C(F)F)ncc2OC)c(C(=O)Nc2nnc(C#CC3CC3)s2)cn1 [Compound 269],0.38 nM
14,COc1cnc(C(F)F)cc1-c1cc(C2CCOCC2)ncc1C(=O)Nc1nnc(C#CC2CC2)s1 [Compound 270],9.9 nM
15,COc1cnc(C(F)F)cc1-c1cc(CO)ncc1C(=O)Nc1nnc(C#CC2CC2)s1 [Compound 272],1.2 nM
16,COc1cnc(Cl)cc1-c1cnccc1C(=O)Nc1nnc(C2C[C@H]2c2ccc(C#N)cc2O)s1 (some centres unmarked) [Compound 273],1.8 nM
17,COc1cnc(C(F)F)cc1-c1cnccc1C(=O)Nc1nnc([C@@H]2C[C@H]2c2ccc(C#N)cc2)s1 [Compound 274],0.51 nM
18,COc1cnc(C(F)F)cc1-c1cnccc1C(=O)Nc1nnc([C@H]2C[C@@H]2c2ccc(C#N)cc2)s1 [Compound 275],3.1 nM
19,COc1cnc(C(F)F)cc1-c1cc(N(C)C(C)=O)ccc1C(=O)Nc1nnc(C#CC2CC2)s1 [Compound 276],< 0.25 nM
20,Cc1cnc(C(F)F)cc1-c1cnccc1C(=O)Nc1nnc(C#CC2CC2)s1 [Compound 279],1.5 nM
21,COc1cnc(C(F)F)cc1-c1cc(-c2ccn(C)n2)ccc1C(=O)Nc1nnc(C#CC2CC2)s1 [Compound 280],< 0.25 nM
22,COc1cnc(C(F)F)cc1-c1cc(C#CC2(O)CCOCC2)ccc1C(=O)Nc1nnc(C#CC2CC2)s1 [Compound 283],< 0.25 nM
23,COc1cnc(C(F)F)cc1-c1cc(C2=CCOCC2)ncc1C(=O)Nc1nnc(C#CC2CC2)s1 [Compound 284],5.6 nM

# Continued, values first:
row,IC50,SMILES
1,1.5 nM,COc1cnc(C(F)F)cc1-c1cc(N2C(=O)CCC2=O)ccc1C(=O)Nc1nnc(C#CC2CC2)s1 [Compound 216]
2,0.56 nM,COc1cnc(C(F)F)cc1-c1cc(NC(C)=O)ccc1C(=O)Nc1nnc(C#CC2CC2)s1 [Compound 225]
3,6.9 nM,COc1cnc(C(F)F)cc1-c1cc(CN2CCOCC2=O)ccc1C(=O)Nc1nnc(C#CC2CC2)s1 [Compound 227]
4,1.6 nM,COc1cnc(C(F)F)cc1-c1cc(CN2CCN(C)C2=O)ccc1C(=O)Nc1nnc(C#CC2CC2)s1 [Compound 231]
5,19 nM,COc1cnc(C(F)F)cc1-c1cc(N2CCOCC2)ncc1C(=O)Nc1nnc(C#CC2CC2)s1 [Compound 235]
6,18 nM,COc1cnc(C(F)F)cc1-c1cc(N2CCOCC2)ccc1C(=O)Nc1nnc(C#CC2CC2)s1 [Compound 239]
7,15 nM,CNc1ccc(C(=O)Nc2nnc(C#CC3CC3)s2)c(-c2cc(C(F)F)ncc2OC)c1 [Compound 243]
8,2.9 nM,COc1cnc(C(F)F)cc1-c1cc(C2CC2)ncc1C(=O)Nc1nnc(C#CC2CC2)s1 [Compound 247]
9,< 0.25 nM,COc1ccc(C(F)(F)F)cc1-c1cc(C#CC(C)O)ncc1C(=O)Nc1nnc(C#CC2CC2)s1 (centres unmarked) [Compound 248]
10,0.77 nM,COc1ccc(C(F)(F)F)cc1-c1cc(C#CC2CCCOC2)ncc1C(=O)Nc1nnc(C#CC2CC2)s1 (centres unmarked) [Compound 249]
11,1.3 nM,COc1cnc(Cl)cc1-c1cc(C2(C(=O)O)CC2)ccc1C(=O)Nc1nnc(C#CC2CC2)s1 [Compound 250]
12,0.45 nM,COc1cnc(C(F)F)cc1-c1cc(C#N)ccc1C(=O)Nc1nnc(C#CC2CC2)s1 [Compound 251]
13,< 0.25 nM,COc1cnc(C(F)F)cc1-c1cc(-c2cnn(C)c2)ncc1C(=O)Nc1nnc(C#CC2CC2)s1 [Compound 252]
14,1.7 nM,COc1cnc(C(F)F)cc1-c1cc(C(=O)N2CCOCC2)ccc1C(=O)Nc1nnc(C#CC2CC2)s1 [Compound 254]
15,0.62 nM,COc1cnc(C(F)F)cc1-c1cc(-n2cccn2)ncc1C(=O)Nc1nnc(C#CC2CC2)s1 [Compound 261]
16,0.29 nM,COc1cnc(C(F)F)cc1-c1cc(-n2ccnc2)ncc1C(=O)Nc1nnc(C#CC2CC2)s1 [Compound 262]
17,< 0.25 nM,COc1cnc(C(F)F)cc1-c1cc(-n2cncn2)ncc1C(=O)Nc1nnc(C#CC2CC2)s1 [Compound 263]
18,0.64 nM,COc1cnc(C(F)F)cc1-c1cc(Oc2cnn(C)c2)ncc1C(=O)Nc1nnc(C#CC2CC2)s1 [Compound 271]
19,3.2 nM,COc1cnc(Cl)cc1-c1cc(N2CCC(O)C2=O)ccc1C(=O)Nc1nnc(C#CC2CC2)s1 (centres unmarked) [Compound 277]
20,< 0.25 nM,COc1cnc(C(F)F)cc1-c1cc(C)ncc1C(=O)Nc1nnc(C#CC2CC2)s1 [Compound 278]
21,20 nM,COc1ccc(C(F)(F)F)cc1-c1cc(N2CCN(C)C2=O)ncc1C(=O)Nc1nnc(C#CC2CC2)s1 [Compound 281]
22,0.26 nM,COc1cnc(C(F)F)cc1-c1cc(C2CCN(C)C2=O)ccc1C(=O)Nc1nnc(C#CC2CC2)s1 (centres unmarked) [Compound 282]
